Test results as given in US7709498B2, “Quinoline derivatives as antibacterial agents” (Janssen Pharmaceutica N.V., priority 2005, dated 2010).
Converted amounts (≈) assume the structure as drawn. One block for each molecule: values may come before it.

Legend:
Assay type in all cases: cell-based
[1] = test system: Streptococcus pneumoniae (ATCC6305); assay: Microtitre plate assay, IC90 determination, SPN 6305; conditions: 90% inhibitory concentration for bacterial growth, 37° C., resazurin fluorescence; for IC90: Streptococcus pneumoniae, ATCC6305, 24 h, read-out: IC90 (μg/ml) SPN 6305; for IC90 (μg/ml) SPN 6305: 24 hours
Experimental: (§1) The bacteria used in this study were grown overnight in flasks containing 100 ml Mueller-Hinton Broth (Becton Dickinson—cat. no. 275730) in sterile de-ionized water, with shaking, at 37° C. Stocks (0.5 ml/tube) were stored at −70° C. until use. Bacteria titrations were performed in microtiter plates to detect the TCID50, in which the TCID50 represents the dilution that gives rise to bacterial growth in 50% of inoculated cultures.
(§2) In general, an inoculum level of approximately 100 TCID50 was used for susceptibility testing.
(§3) Flat-bottom, sterile 96-well plastic microtiter plates were filled with 180 μl of sterile deionized water, supplemented with 0.25% BSA. Subsequently, stock solutions (7.8× final test concentration) of compounds were added in 45 μl volumes in column 2. Serial five-fold dilutions (45 μl in 180 μl) were made directly in the microtiter plates from column 2 to reach column 11. Untreated control samples with (column 1) and without (column 12) inoculum were included in each microtiter plate. Depending on the bacteria type, approximately 10 to 60 CFU per well of bacteria inoculum (100 TCID50), in a volume of 100 μl in 2.8× Mueller-Hinton broth medium, was added to the rows A to H, except column 12. The same volume of broth medium without inoculum was added to column 12 in row A to H. The cultures were incubated at 37° C. for 24 hours under a normal atmosphere (incubator with open air valve and continuous ventilation). At the end of incubation, one day after inoculation, the bacterial growth was quantitated fluorometrically. Therefore resazurin (0.6 mg/ml) was added in a volume of 20 μl to all wells 3 hours after inoculation, and the plates were re-incubated overnight. A change in colour from blue to pink indicated the growth of bacteria. The fluorescence was read in a computer-controlled fluorometer (Cytofluor Biosearch) at an excitation wavelength of 530 nm and an emission wavelength of 590 nm. The % growth inhibition achieved by the compounds was calculated according to standard methods. The IC90 (expressed in μg/ml) was defined as the 90% inhibitory concentration for bacterial growth.
(§4) BSU 3639 means Bacillus subtilis (ATCC43639); ECO 25922 means Escherichia coli (ATCC25922); EFA 14506 means Enterococcus faecalis (ATCC14506); EFA 29212 means Enterococcus faecalis (ATCC29212); LMO 49594 means Listeria monocytogenes (ATCC49594); PAE 27853 means Pseudomonas aeruginosa (ATCC27853); SMU 33402 means Streptococcus mutans (ATCC33402); SPN 6305 means Streptococcus pneumoniae (ATCC6305); SPY 8668 means Streptococcus pyogens (ATCC8668); STA 43300 means Staphylococcus aureus (ATCC43300); STA 25923 means Staphylococcus aureus (ATCC25923); STA 29213 means Staphylococcus aureus (ATCC29213); STA RMETH means methicilline resistant Staphylococcus aureus (MRSA) (a clinical isolate from the University of Antwerp). ATCC means American type tissue culture.

[2] = test system: Streptococcus mutans (ATCC33402); assay: Microtitre plate assay, IC90 determination, SMU 33402; conditions: 90% inhibitory concentration for bacterial growth, 37° C., resazurin fluorescence; for IC90: Streptococcus mutans, ATCC33402, 24 h, read-out: IC90 (μg/ml) SMU 33402; for IC90 (μg/ml) SMU 33402: 24 hours
Experimental: as §1, §2, §3, §4

[3] = test system: Streptococcus pyogens (ATCC8668); assay: Microtitre plate assay, IC90 determination, SPY 8668; conditions: 90% inhibitory concentration for bacterial growth, 37° C., resazurin fluorescence; for IC90: Streptococcus, ATCC8668, 24 h, read-out: IC90 (μg/ml) SPY 8668; for IC90 (μg/ml) SPY 8668: 24 hours
Experimental: as §1, §2, §3, §4

[4] = test system: Listeria monocytogenes (ATCC49594); assay: Microtitre plate assay, IC90 determination, LMO 49594; conditions: 90% inhibitory concentration for bacterial growth, 37° C., resazurin fluorescence; for IC90: Listeria monocytogenes, ATCC49594, 24 h, read-out: IC90 (μg/ml) LMO 49594; for IC90 (μg/ml) LMO 49594: 24 hours
Experimental: as §1, §2, §3, §4

Compound: COc1nc2ccc(Br)cc2cc1C(c1ccccc1)C(O)(CCN1CCN(c2ncccn2)CC1)c1ccc2ccccc2c1 (centres unmarked) [Compound 209]
IC90 [1]: 15.1 µg/mL (≈ 22.4 µM)

Compound: COc1nc2ccc(Br)cc2cc1C(c1ccccc1)C(O)(CCN1CCSCC1)c1ccccc1 (racemic) [Compound 55]
IC90 (μg/ml) SPN 6305 [1]: 0.6 µg/mL (≈ 1.06 µM)

Compound: CNCCC(O)(c1ccccc1)C(c1ccccc1)c1cc2cc(Br)ccc2nc1OC (centres unmarked) [Compound D]
IC90 [1]: 4.9 µg/mL (≈ 9.97 µM)

Compound: COc1nc2ccc(Br)cc2cc1C(c1ccccc1)C(O)(CCN1CCCCC1)c1ccc2ccccc2c1 (centres unmarked) [Compound 129]
IC90 [1]: 15 µg/mL (≈ 25.2 µM) | IC90 [2]: 11.9 µg/mL (≈ 20 µM) | IC90 [3]: 11.9 µg/mL (≈ 20 µM)

Compound: COc1nc2ccc(Br)cc2cc1C(c1ccc(F)cc1)C(O)(CCN(C)C)c1cccc2ccccc12 (centres unmarked) [Compound 206]
IC90 [1]: 12.8 µg/mL (≈ 22.3 µM)

Compound: COc1ccc2cc(C(O)(CCN(C)C)C(c3ccccc3)c3cc4cc(Br)ccc4nc3OC)ccc2c1 (centres unmarked) [Compound 163]
IC90 [1]: 14.7 µg/mL (≈ 25.1 µM)

Compound: COc1nc2ccc(Br)cc2cc1C(c1ccccc1)C(O)(CCN1CCCCC1)c1ccc2cc(Br)ccc2c1 (centres unmarked) [Compound 166]
IC90 [1]: 16.9 µg/mL (≈ 25.1 µM)

Compound: COc1nc2ccc(Br)cc2cc1C(c1ccccc1)C(O)(CC[N+](C)(C)[O-])c1ccccc1 (racemic) [Compound 11]
IC90 (μg/ml) SMU 33402 [2]: 10.4 µg/mL (≈ 19.9 µM) | IC90 (μg/ml) LMO 49594 [4]: 11.7 µg/mL (≈ 22.4 µM) | IC90 (μg/ml) SPY 8668 [3]: 11.7 µg/mL (≈ 22.4 µM)

Compound: COc1nc2ccc(Br)cc2cc1C(c1ccc(Cl)cc1)C(O)(CCN(C)C)c1cccc2ccccc12 (centres unmarked) [Compound 73]
IC90 [2]: 11.8 µg/mL (≈ 20 µM) | IC90 [3]: 14.8 µg/mL (≈ 25.1 µM)

Compound: COc1nc2ccc(Br)cc2cc1C(c1ccc(C)cc1)C(O)(CCN(C)C)c1cccc2ccccc12 (centres unmarked) [Compound 72]
IC90 [1]: 14.3 µg/mL (≈ 25.1 µM) | IC90 [2]: 9 µg/mL (≈ 15.8 µM) | IC90 [3]: 11.4 µg/mL (≈ 20 µM)

Compound: COc1nc2cc(C)c(Br)cc2cc1C(c1ccccc1)C(O)(CCN(C)C)c1cccc2ccccc12 (racemic) [Compound 226]
IC90 (μg/ml) SPN 6305 [1]: 14.3 µg/mL (≈ 25.1 µM)

Compound: CCN(CCC(O)(c1ccc(F)cc1F)C(c1ccccc1)c1cc2cc(Br)ccc2nc1OC)Cc1ccccc1 (racemic) [Compound C]
IC90 (μg/ml) SPN 6305 [1]: 15.9 µg/mL (≈ 25.2 µM)

Compound: CCOc1nc2ccc(Br)cc2cc1C(c1ccccc1)C(O)(CCN(C)C)c1ccccc1 (centres unmarked) [Compound 5]
IC90 (μg/ml) SMU 33402 [2]: 10.4 µg/mL (≈ 20 µM)

Compound: COc1nc2ccc(Br)cc2cc1C(c1ccc(Cl)cc1)C(O)(CCN(C)C)c1ccccc1 (centres unmarked) [Compound 37]
IC90 (μg/ml) SPN 6305 [1]: 12.1 µg/mL (≈ 22.4 µM)

Compound: CCN(CC)CCC(O)(c1ccccc1)C(c1ccccc1)c1cc2cc(Br)ccc2nc1OC (centres unmarked) [Compound 19]
IC90 (μg/ml) SPN 6305 [1]: 13.4 µg/mL (≈ 25.1 µM)

Now from value to molecule:

IC90 (μg/ml) SPN 6305 [1]: 14.3 µg/mL (≈ 25.2 µM) | IC90 (μg/ml) SMU 33402 [2]: 14.3 µg/mL (≈ 25.2 µM) | IC90 (μg/ml) SPY 8668 [3]: 11.3 µg/mL (≈ 19.9 µM)
Compound: COCCOc1nc2ccc(Br)cc2cc1C(c1ccccc1)C(O)(CCN(C)C)c1cccc(F)c1 (racemic) [Compound 165]

IC90 [4]: 10.8 µg/mL (≈ 19.9 µM)
Compound: COc1nc2ccc(Br)cc2cc1C(c1ccccc1)C(O)(CCN(C)C)c1cc(F)cc(F)c1 (centres unmarked) [Compound 116]

IC90 (μg/ml) LMO 49594 [4]: 10.4 µg/mL (≈ 19.9 µM)
Compound: COc1nc2ccc(Br)cc2cc1C(c1ccccc1)C(O)(CCN(C)C)c1cccc(F)c1 (centres unmarked) [Compound 38]

IC90 [1]: 10.2 µg/mL (≈ 19.9 µM)
Compound: COc1nc2ccc(Br)cc2cc1C(c1ccccc1)C(O)(CCN(C)C)c1ccsc1 (centres unmarked) [Compound 24]

IC90 [4]: 10.2 µg/mL (≈ 20 µM)
Compound: COc1nc2ccc(-c3ccco3)cc2cc1C(c1ccccc1)C(O)(CCN(C)C)c1cccc(F)c1 (centres unmarked) [Compound 174]

IC90 (μg/ml) SPN 6305 [1]: 25.3 µg/mL (≈ 50.1 µM) | IC90 (μg/ml) SMU 33402 [2]: 22.6 µg/mL (≈ 44.7 µM) | IC90 (μg/ml) SPY 8668 [3]: 22.6 µg/mL (≈ 44.7 µM)
Compound: COc1nc2ccc(Br)cc2cc1C(c1ccccc1)C(O)(CCN(C)C)c1ccccc1 (single isomer, unassigned) [F]

IC90 [1]: 13.6 µg/mL (≈ 25.1 µM) | IC90 [4]: 10.8 µg/mL (≈ 19.9 µM)
Compound: COc1nc2ccc(Br)cc2cc1C(c1ccccc1)C(O)(CCN(C)C)c1cc(F)ccc1F (centres unmarked) [Compound 67]

IC90 (μg/ml) LMO 49594 [4]: 10.7 µg/mL (≈ 19.9 µM)
Compound: COc1nc2cc(C)c(Br)cc2cc1C(c1ccccc1)C(O)(CCN(C)C)c1cccc(F)c1 (racemic) [Compound 215]
